Columns and labels:
CASOB (Sicklepod) = assay: Preemergence herbicidal evaluation; assay type: in vivo, Cassia obtusifolia; conditions: preemergence, rated 4-5 weeks after treatment, 0-9 scale
How it was run: (§1)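 Scores (0–9) reflect visual comparison with control plants for stand, vigor, malformation, size and chlorosis. Compound was applied to the soil after sowing, before emergence, as an aqueous acetone spray (about 0.0156–0.500 kg/ha), and cups were kept in a greenhouse for 4–5 weeks.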

[1] = system: IPOHE (Morningglory, Ivyleaf); assay: Preemergence herbicidal evaluation; assay type: in vivo, Ipomoea hederacea; conditions: preemergence, rated 4-5 weeks after treatment, 0-9 scale
How it was run: as §1

ECHCG (Barnyardgrass) [2] = assay: Postemergence herbicidal evaluation; assay type: in vivo, Echinochloa crus-galli; conditions: postemergence
How it was run: (§2)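 Each compound, dispersed in an acetone/water mix (50/50) carrying 0.5% TWEEN 20, is nozzle-sprayed at 40 psi on approximately two-week-old seedlings at about 0.0156–0.500 kg/ha. Plants are assessed 4–5 weeks afterward on a 0–9 scale relative to control; duplicate tests are averaged.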

[3] = system: ECHORC (Watergrass (Calif.)); assay: Postemergence weed control under flooded paddy conditions; assay type: in vivo, Echinochloa oryzoides; conditions: postemergence weeds, rated 3 to 4 weeks after treatment
How it was run: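 Containers holding 3–5 cm weeds and rice at 1.5–2.5 leaves are flooded to 1.5–3 cm above soil. Compound in 50/50 v/v aqueous/acetone is then added directly to the water, about 0.0313–0.500 kg/ha. Plants are kept in the greenhouse and rated 0–9 visually at 3–4 weeks.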

[4] = system: CHEAL (Lambsquarters, Common); assay: Preemergence herbicidal evaluation; assay type: in vivo, Chenopodium album; conditions: preemergence, rated 4-5 weeks after treatment, 0-9 scale
How it was run: as §1

ZEAMX (Corn, Field) = assay: Preemergence herbicidal evaluation; assay type: in vivo, Zea mays; conditions: preemergence, rated 4-5 weeks after treatment, 0-9 scale
How it was run: as §1

[5] = system: TRZAWR (Wheat, Winter, cv Riband); assay: Postemergence herbicidal evaluation; assay type: in vivo, Triticum aestivum; conditions: postemergence
How it was run: as §2

[6] = system: GLXMAW (Soybean, Williams); assay: Postemergence herbicidal evaluation; assay type: in vivo, Glycine max, (L.) Merr. cv Williams; conditions: postemergence
How it was run: as §2

ABUTH (Velvetleaf) = assay: Postemergence herbicidal evaluation; assay type: in vivo, Abutilon theophrasti; conditions: postemergence
How it was run: as §2

SETVI (Foxtail, Green) = assay: Postemergence herbicidal evaluation; assay type: in vivo, Setaria viridis; conditions: postemergence
How it was run: as §2

ECHCG (Barnyardgrass) [7] = assay: Preemergence herbicidal evaluation; assay type: in vivo, Echinochloa crus-galli; conditions: preemergence, rated 4-5 weeks after treatment, 0-9 scale
How it was run: as §1

[8] = system: IPOHE (Morningglory, Ivyleaf); assay: Postemergence herbicidal evaluation; assay type: in vivo, Ipomoea hederacea; conditions: postemergence
How it was run: as §2

AMBEL (Ragweed, Common) = assay: Postemergence herbicidal evaluation; assay type: in vivo, Ambrosia artemisifolia; conditions: postemergence
How it was run: as §2

GALAP (Galium) = assay: Preemergence herbicidal evaluation; assay type: in vivo, Galium aparine; conditions: preemergence, rated 4-5 weeks after treatment, 0-9 scale
How it was run: as §1

## CCOC(=O)CN1C(=O)C(CC(=O)NS(=O)(=O)CC)SC1=Nc1cc(-n2c(=O)cc(C(F)(F)F)n(C)c2=O)c(F)cc1Cl (stereo not drawn) [Compound 103, Ethyl 2-{{2-chloro-5-[3,6-dihydro-3-methyl-2,6-dioxo-4-(trifluoromethyl)-1(2H)-pyrimidinyl]-4-fluorophenyl}imino}-5-{[(ethylsulfonyl)carbamoyl]-methyl}-4-oxo-3-thiazolidineacetate]
CASOB (Sicklepod); 0.0313 kg/ha
  CASOB rating: 0.0
CASOB (Sicklepod); 0.0625 kg/ha
  CASOB rating: 0.0
CASOB (Sicklepod); 0.1250 kg/ha
  CASOB rating: 0.0
CASOB (Sicklepod); 0.2500 kg/ha
  CASOB rating: 3.0
CASOB (Sicklepod); 0.5000 kg/ha
  CASOB rating: 3.0
[1]; 0.0313 kg/ha
  IPOHE rating: 0.0
[1]; 0.0625 kg/ha
  IPOHE rating: 0.0
[1]; 0.1250 kg/ha
  IPOHE rating: 3.0
[1]; 0.2500 kg/ha
  IPOHE rating: 5.0
[1]; 0.5000 kg/ha
  IPOHE rating: 9.0
ECHCG (Barnyardgrass) [2]; rate 0.0156 kg/ha
  herbicidal rating ECHCG: 3.0
ECHCG (Barnyardgrass) [2]; rate 0.0313 kg/ha
  herbicidal rating ECHCG: 9.0
ECHCG (Barnyardgrass) [2]; rate 0.0625 kg/ha
  herbicidal rating ECHCG: 9.0
ECHCG (Barnyardgrass) [2]; rate 0.1250 kg/ha
  herbicidal rating ECHCG: 9.0
[3]; Rate 0.0313 kg/ha
  Herbicidal rating ECHORC: 4.0
[3]; Rate 0.0625 kg/ha
  Herbicidal rating ECHORC: 4.0
[3]; Rate 0.1250 kg/ha
  Herbicidal rating ECHORC: 5.0
[3]; Rate 0.2500 kg/ha
  Herbicidal rating ECHORC: 6.0
[4]; 0.0313 kg/ha
  CHEAL rating: 0.0
[4]; 0.0625 kg/ha
  CHEAL rating: 4.0
[4]; 0.1250 kg/ha
  CHEAL rating: 9.0
[4]; 0.2500 kg/ha
  CHEAL rating: 9.0
[4]; 0.5000 kg/ha
  CHEAL rating: 9.0
ZEAMX (Corn, Field); 0.0313 kg/ha
  ZEAMX rating: 0.0
ZEAMX (Corn, Field); 0.0625 kg/ha
  ZEAMX rating: 0.0
ZEAMX (Corn, Field); 0.1250 kg/ha
  ZEAMX rating: 0.0
ZEAMX (Corn, Field); 0.2500 kg/ha
  ZEAMX rating: 0.0
ZEAMX (Corn, Field); 0.5000 kg/ha
  ZEAMX rating: 1.0
[5]; rate 0.0156 kg/ha
  herbicidal rating TRZAWR: 3.5
[5]; rate 0.0313 kg/ha
  herbicidal rating TRZAWR: 6.0
[5]; rate 0.0625 kg/ha
  herbicidal rating TRZAWR: 7.5
[5]; rate 0.1250 kg/ha
  herbicidal rating TRZAWR: 7.5
[6]; rate 0.0156 kg/ha
  herbicidal rating GLXMAW: 8.0
[6]; rate 0.0313 kg/ha
  herbicidal rating GLXMAW: 7.0
[6]; rate 0.0625 kg/ha
  herbicidal rating GLXMAW: 9.0
[6]; rate 0.1250 kg/ha
  herbicidal rating GLXMAW: 9.0
ABUTH (Velvetleaf); rate 0.0156 kg/ha
  herbicidal rating ABUTH: 9.0
ABUTH (Velvetleaf); rate 0.0313 kg/ha
  herbicidal rating ABUTH: 9.0
ABUTH (Velvetleaf); rate 0.0625 kg/ha
  herbicidal rating ABUTH: 9.0
ABUTH (Velvetleaf); rate 0.1250 kg/ha
  herbicidal rating ABUTH: 9.0
SETVI (Foxtail, Green); rate 0.0156 kg/ha
  herbicidal rating SETVI: 4.0
SETVI (Foxtail, Green); rate 0.0313 kg/ha
  herbicidal rating SETVI: 5.0
SETVI (Foxtail, Green); rate 0.0625 kg/ha
  herbicidal rating SETVI: 9.0
SETVI (Foxtail, Green); rate 0.1250 kg/ha
  herbicidal rating SETVI: 9.0
ECHCG (Barnyardgrass) [7]; 0.0313 kg/ha
  ECHCG rating: 0.0
ECHCG (Barnyardgrass) [7]; 0.0625 kg/ha
  ECHCG rating: 0.0
ECHCG (Barnyardgrass) [7]; 0.1250 kg/ha
  ECHCG rating: 0.0
ECHCG (Barnyardgrass) [7]; 0.2500 kg/ha
  ECHCG rating: 0.0
ECHCG (Barnyardgrass) [7]; 0.5000 kg/ha
  ECHCG rating: 2.0
[8]; rate 0.0156 kg/ha
  herbicidal rating IPOHE: 9.0
[8]; rate 0.0313 kg/ha
  herbicidal rating IPOHE: 9.0
[8]; rate 0.0625 kg/ha
  herbicidal rating IPOHE: 9.0
[8]; rate 0.1250 kg/ha
  herbicidal rating IPOHE: 9.0
AMBEL (Ragweed, Common); rate 0.0156 kg/ha
  herbicidal rating AMBEL: 9.0
AMBEL (Ragweed, Common); rate 0.0313 kg/ha
  herbicidal rating AMBEL: 9.0
AMBEL (Ragweed, Common); rate 0.0625 kg/ha
  herbicidal rating AMBEL: 9.0
AMBEL (Ragweed, Common); rate 0.1250 kg/ha
  herbicidal rating AMBEL: 9.0
GALAP (Galium); 0.0313 kg/ha
  GALAP rating: 0.0
GALAP (Galium); 0.0625 kg/ha
  GALAP rating: 0.0
GALAP (Galium); 0.1250 kg/ha
  GALAP rating: 0.0
GALAP (Galium); 0.2500 kg/ha
  GALAP rating: 0.0
GALAP (Galium); 0.5000 kg/ha
  GALAP rating: 7.0

## CCS(=O)(=O)NC(=O)CC1SC(=Nc2cc(-n3c(=O)cc(C(F)(F)F)n(C)c3=O)c(F)cc2Cl)N(C)C1=O (stereo not drawn) [Compound 105, 2-{{2-Chloro-5-[3,6-dihydro-3-methyl-2,6-dioxo-4-(trifluoromethyl)-1(2H)-pyrimidinyl]-4-fluorophenyl}imino}-N-(ethylsulfonyl)-3-methyl-4-oxo-5-thiazolidineacetamide]
CASOB (Sicklepod); 0.1250 kg/ha
  CASOB rating: 0.0
CASOB (Sicklepod); 0.2500 kg/ha
  CASOB rating: 0.0
CASOB (Sicklepod); 0.5000 kg/ha
  CASOB rating: 0.0
[1]; 0.1250 kg/ha
  IPOHE rating: 0.0
[1]; 0.2500 kg/ha
  IPOHE rating: 3.0
[1]; 0.5000 kg/ha
  IPOHE rating: 4.0
ECHCG (Barnyardgrass) [2]; rate 0.0156 kg/ha
  herbicidal rating ECHCG: 0.0
ECHCG (Barnyardgrass) [2]; rate 0.0313 kg/ha
  herbicidal rating ECHCG: 0.0
ECHCG (Barnyardgrass) [2]; rate 0.0625 kg/ha
  herbicidal rating ECHCG: 0.0
ECHCG (Barnyardgrass) [2]; rate 0.1250 kg/ha
  herbicidal rating ECHCG: 3.0
[3]; Rate 0.0313 kg/ha
  Herbicidal rating ECHORC: 0.0
[3]; Rate 0.0625 kg/ha
  Herbicidal rating ECHORC: 3.0
[3]; Rate 0.1250 kg/ha
  Herbicidal rating ECHORC: 4.0
[3]; Rate 0.2500 kg/ha
  Herbicidal rating ECHORC: 5.0
[4]; 0.1250 kg/ha
  CHEAL rating: 9.0
[4]; 0.2500 kg/ha
  CHEAL rating: 9.0
[4]; 0.5000 kg/ha
  CHEAL rating: 9.0
ZEAMX (Corn, Field); 0.1250 kg/ha
  ZEAMX rating: 0.0
ZEAMX (Corn, Field); 0.2500 kg/ha
  ZEAMX rating: 1.0
ZEAMX (Corn, Field); 0.5000 kg/ha
  ZEAMX rating: 2.0
[5]; rate 0.0156 kg/ha
  herbicidal rating TRZAWR: 3.5
[5]; rate 0.0313 kg/ha
  herbicidal rating TRZAWR: 3.0
[5]; rate 0.0625 kg/ha
  herbicidal rating TRZAWR: 3.5
[5]; rate 0.1250 kg/ha
  herbicidal rating TRZAWR: 3.5
[6]; rate 0.0156 kg/ha
  herbicidal rating GLXMAW: 3.0
[6]; rate 0.0313 kg/ha
  herbicidal rating GLXMAW: 4.5
[6]; rate 0.0625 kg/ha
  herbicidal rating GLXMAW: 6.5
[6]; rate 0.1250 kg/ha
  herbicidal rating GLXMAW: 7.5
ABUTH (Velvetleaf); rate 0.0156 kg/ha
  herbicidal rating ABUTH: 4.0
ABUTH (Velvetleaf); rate 0.0313 kg/ha
  herbicidal rating ABUTH: 4.0
ABUTH (Velvetleaf); rate 0.0625 kg/ha
  herbicidal rating ABUTH: 4.0
ABUTH (Velvetleaf); rate 0.1250 kg/ha
  herbicidal rating ABUTH: 9.0
SETVI (Foxtail, Green); rate 0.0156 kg/ha
  herbicidal rating SETVI: 0.0
SETVI (Foxtail, Green); rate 0.0313 kg/ha
  herbicidal rating SETVI: 0.0
SETVI (Foxtail, Green); rate 0.0625 kg/ha
  herbicidal rating SETVI: 2.0
SETVI (Foxtail, Green); rate 0.1250 kg/ha
  herbicidal rating SETVI: 5.0
ECHCG (Barnyardgrass) [7]; 0.1250 kg/ha
  ECHCG rating: 0.0
ECHCG (Barnyardgrass) [7]; 0.2500 kg/ha
  ECHCG rating: 0.0
ECHCG (Barnyardgrass) [7]; 0.5000 kg/ha
  ECHCG rating: 1.0
[8]; rate 0.0156 kg/ha
  herbicidal rating IPOHE: 5.0
[8]; rate 0.0313 kg/ha
  herbicidal rating IPOHE: 9.0
[8]; rate 0.0625 kg/ha
  herbicidal rating IPOHE: 9.0
[8]; rate 0.1250 kg/ha
  herbicidal rating IPOHE: 9.0
AMBEL (Ragweed, Common); rate 0.0156 kg/ha
  herbicidal rating AMBEL: 0.0
AMBEL (Ragweed, Common); rate 0.0313 kg/ha
  herbicidal rating AMBEL: 0.0
AMBEL (Ragweed, Common); rate 0.0625 kg/ha
  herbicidal rating AMBEL: 3.0
AMBEL (Ragweed, Common); rate 0.1250 kg/ha
  herbicidal rating AMBEL: 9.0
GALAP (Galium); 0.2500 kg/ha
  GALAP rating: 3.0
GALAP (Galium); 0.5000 kg/ha
  GALAP rating: 7.0
